Measured values as given in ChEMBL document CHEMBL1147963, “Design, synthesis, and antitumor activity of bile acid-polyamine-nucleoside conjugates” (Bioorg Med Chem Lett, 2007).
pIC50: −log10 of the molar value.

What was measured:
Format in all cases: functional, cell-based
786-0 = test: Cytotoxicity against human 7860 cells after 48 hrs by MTT assay
HeLa [1] = test: Cytotoxicity against human HeLa cells at 100 uM after 48 hrs by MTT assay
HeLa [2] = test: Cytotoxicity against human HeLa cells at 125 uM after 48 hrs by MTT assay

SMILES | pIC50 (786-0; Homo sapiens, 786-0, 48 h) | pIC50 (HeLa [1]) | pIC50 (786-0; 786-0) | pIC50 (HeLa [2])
Cc1cn([C@H]2C[C@H](N=[N+]=[N-])[C@@H](COP(=O)(NCCNCCNC(=O)CCC(C)[C@H]3CC[C@H]4[C@@H]5[C@H](O)C[C@@H]6C[C@H](O)CC[C@]6(C)[C@H]5C[C@H](O)[C@]34C)OC[C@H]3O[C@@H](n4cc(C)c(=O)[nH]c4=O)C[C@@H]3N=[N+]=[N-])O2)c(=O)[nH]c1=O (stereo not given in full) | < 4.00 | < 4.00 | – | –
Cc1cn([C@H]2C[C@H](N=[N+]=[N-])[C@@H](COP(=O)(NCCNCCNC(=O)CCC(C)[C@H]3CC[C@H]4[C@@H]5CC[C@@H]6C[C@H](O)CC[C@]6(C)[C@H]5C[C@H](O)[C@]34C)OC[C@H]3O[C@@H](n4cc(C)c(=O)[nH]c4=O)C[C@@H]3N=[N+]=[N-])O2)c(=O)[nH]c1=O (stereo not given in full) | < 4.00 | < 4.00 | – | –
Cc1cn([C@H]2C[C@H](N=[N+]=[N-])[C@@H](COP(=O)(NCCCNCCCNC(=O)CCC(C)[C@H]3CC[C@H]4[C@@H]5C(=O)C[C@@H]6CC(=O)CC[C@]6(C)[C@H]5CC(=O)[C@]34C)OC[C@H]3O[C@@H](n4cc(C)c(=O)[nH]c4=O)C[C@@H]3N=[N+]=[N-])O2)c(=O)[nH]c1=O (stereo not given in full) | < 4.00 | < 4.00 | – | –
CCCCCCCCCCCCCCCCCCOP(=O)(NCCNCCNC(=O)CCC(C)[C@H]1CC[C@H]2[C@@H]3[C@H](O)C[C@@H]4C[C@H](O)CC[C@]4(C)[C@H]3C[C@H](O)[C@]12C)OC[C@H]1O[C@@H](n2cc(C)c(=O)[nH]c2=O)C[C@@H]1N=[N+]=[N-] (stereo in doubt; 2a) | – | – | 4.23 | –
CCCCCCCCCCCCCCCCCCOP(=O)(NCCNCCNC(=O)CCC(C)[C@H]1CC[C@H]2[C@@H]3CC[C@@H]4C[C@H](O)CC[C@]4(C)[C@H]3C[C@H](O)[C@]12C)OC[C@H]1O[C@@H](n2cc(C)c(=O)[nH]c2=O)C[C@@H]1N=[N+]=[N-] (stereo not given in full) | 4.24 | < 4.00 | – | –
CCCCCCCCCCCCCCCCCCO[PH](=O)OC[C@H]1O[C@@H](n2cc(C)c(=O)[nH]c2=O)C[C@@H]1N=[N+]=[N-] (stereo not given in full) | 4.07 | < 4.00 | – | –
CCCCCCCCCCCCCCCCCCOP(=O)(NCCCNCCCNC(=O)CCC(C)[C@H]1CC[C@H]2[C@@H]3[C@H](O)C[C@@H]4C[C@H](O)CC[C@]4(C)[C@H]3C[C@H](O)[C@]12C)OC[C@H]1O[C@@H](n2cc(C)c(=O)[nH]c2=O)C[C@@H]1N=[N+]=[N-] (stereo not given in full) | 5.14 | 4.03 | – | –
Cc1cn([C@H]2C[C@H](N=[N+]=[N-])[C@@H](COP(=O)(NCCCNCCCNC(=O)CCC(C)[C@H]3CC[C@H]4[C@@H]5CC[C@@H]6C[C@H](O)CC[C@]6(C)[C@H]5C[C@H](O)[C@]34C)OC[C@H]3O[C@@H](n4cc(C)c(=O)[nH]c4=O)C[C@@H]3N=[N+]=[N-])O2)c(=O)[nH]c1=O (stereo not given in full) | < 4.00 | < 4.00 | – | –
Cc1cn([C@H]2C[C@H](N=[N+]=[N-])[C@@H](COP(=O)(NCCNCCNC(=O)CCC(C)[C@H]3CC[C@H]4[C@@H]5C(=O)C[C@@H]6CC(=O)CC[C@]6(C)[C@H]5CC(=O)[C@]34C)OC[C@H]3O[C@@H](n4cc(C)c(=O)[nH]c4=O)C[C@@H]3N=[N+]=[N-])O2)c(=O)[nH]c1=O (stereo not given in full) | < 4.00 | < 4.00 | – | –
CCCCCCCCCCCCCCCCCCOP(=O)(NCCCNCCCNC(=O)CCC(C)[C@H]1CC[C@H]2[C@@H]3CC[C@@H]4C[C@H](O)CC[C@]4(C)[C@H]3C[C@H](O)[C@]12C)OC[C@H]1O[C@@H](n2cc(C)c(=O)[nH]c2=O)C[C@@H]1N=[N+]=[N-] (stereo not given in full) | 5.17 | 4.05 | – | –
CCCCCCCCCCCCCCCCCCOP(=O)(NCCNCCNC(=O)CCC(C)[C@H]1CC[C@H]2[C@@H]3C(=O)C[C@@H]4CC(=O)CC[C@]4(C)[C@H]3CC(=O)[C@]12C)OC[C@H]1O[C@@H](n2cc(C)c(=O)[nH]c2=O)C[C@@H]1N=[N+]=[N-] (stereo not given in full) | 4.38 | < 4.00 | – | –
Cc1cn([C@H]2C[C@H](N=[N+]=[N-])[C@@H](CO)O2)c(=O)[nH]c1=O [ZIDOVUDINE] | – | < 4.00 | – | < 4.00
CCCCCCCCCCCCCCCCCCOP(=O)(NCCCNCCCNC(=O)CCC(C)[C@H]1CC[C@H]2[C@@H]3C(=O)C[C@@H]4CC(=O)CC[C@]4(C)[C@H]3CC(=O)[C@]12C)OC[C@H]1O[C@@H](n2cc(C)c(=O)[nH]c2=O)C[C@@H]1N=[N+]=[N-] (stereo not given in full) | 5.15 | 4.04 | – | –
